In patent publication US9771430B2, “Method of treating a metabolic disorder induced by obesity in a subject in need thereof by administering MK2/3 inhibitors” (THE TRUSTEES OF COLUMBIA UNIVERSITY IN THE CITY OF NEW YORK, priority 2011, dated 2017):

Tests used:
CaMKII [1] = type: cell-based, mouse
Method: (§1) FIG. 1A. CaMKII enzyme activity was assayed in triplicate wells of primary mouse HCs stimulated with 100 nM glucagon (Gluc) or vehicle control (Veh) for the indicated times (*P<0.05 and **P<0.01 vs. Veh; mean±S.E.M.). FIGS. 1B-1J. Extracts of HCs or liver were probed for phospho-CaMKII, total CaMKII, and β-actin by immunoblot assay. FIG. 1B. HCs were incubated with […] glucagon for the indicated times; FIG. 1C. Glucagon was added to HCs that were pre-treated for 1 h with vehicle control (Veh) or 5 μM BAPTA-AM; FIG. 1D. Glucagon was added to HCs that were pre-treated with 0.5 μM xestospongin (XesC) or to HCs from Ip3r1fl/fl mice transduced with adeno-LacZ control or adeno-Cre (bar graph=Ip3r1 mRNA levels); FIG. 1E. Glucagon was added to HCs that were pre-treated for 1 h with vehicle control (Veh) or 10 μM H89. FIG. 1F. […] FIGS. 1G-1J. In vivo experiments. In FIG. 1G, mice were treated for 30 min with 200 μg kg−1 body weight of glucagon i.p., and in FIG. 1H, mice were pre-treated with 10 pmol g−1 xestospongin C or vehicle control i.p. 4 days prior to glucagon treatment. In FIGS. 1I-1J, mice were fed ad libitum or fasted for 12 h, or fasted for 12 h and then re-fed for 4 h.
Total RNA was extracted from hepatocytes using the RNeasy kit (Qiagen). cDNA was synthesized from 2 μg total RNA using oligo (dT) and Superscript II (Invitrogen). Real-time qPCR analysis and western blotting were performed as previously described (Timmins et al., 2009). Nuclear extraction from liver was performed using the Nuclear Extraction Kit from Panomics according to the manufacturer's instructions.
Immunoblot and RT-qPCR assays were performed as previously described (Timmins et al., 2009). Total RNA was extracted from HCs using the RNeasy kit (Qiagen). cDNA was synthesized from 2 μg total RNA using oligo (dT) and Superscript II (Invitrogen). Nuclear extraction from liver was performed using the Nuclear Extraction Kit from Panomics according to the manufacturer's instructions.

CaMKII [2] = assay: Hepatic CaMKII phosphorylation in mice; type: in vivo, mouse
Method: as §1, with “FIGS. 1A-J. Glucagon and fasting activates hepatic CaMKII. FIG. 1A.” for “FIG. 1A.”
FIGS. 28A-G. (Related to FIGS. 1 and 22). FIG. 28A Mice were injected i.p. with the indicated doses of glucagon and sacrificed 15 min later. The livers were probed for phospho- and total CaMKII and β-actin by immunoblot. FIG. 28B Mice (n=5/group) were fed ad libitum or fasted for 12 h and then plasma was assayed for glucagon (*P=0.007; mean±S.E.M.). FIG. 28C Mice were injected i.p. with 10 pmol g^−1 xestospongin C (XesC) or vehicle control each day for 4 days and then fed ad libitum or fasted for 12 h. Liver phospho-CaMKII, total CaMKII, and β-actin levels were assayed by immunoblot. FIG. 28D Immunoblot of CaMKII in HCs transduced with adeno-LacZ vs. CA-CaMKII. FIG. 28E HCs were transduced with adeno-LacZ or KD-CaMKII. Cells were serum-depleted overnight and then assayed for CaMKII activity (*P<0.005; mean±S.E.M.). […]
(§2) Camk2g−/− mice were generated as described previously (Backs et al., 2010) and crossed onto the C57BL6/J background. […] Fasting blood glucose was measured in mice that were fasted for 12-14 h, with free access to water, using a glucose meter (One Touch Ultra, Lifescan). […] Blood glucose levels were measured over the following 2 h. […]
as §2, with “Camk2g^−/−” for “Camk2g−/−”, “background. ob/ob mice were obtained from Jackson Labs.” for “background.”

**Q.** Which “glucagon-induced CaMKII phosphorylation” value (CaMKII [1]; HCs pre-treated with inhibitor, then glucagon) does the source give for C1CCC[C@H]2CCCN3CC[C@@H](CCCCCC[C@@H]4CCCN5CC[C@@H](CC1)O[C@@H]45)O[C@@H]23 [Xestospongin C] here?
**A.** Its value is “significant decrease”.

**Q.** What about the “glucagon-induced CaMKII phosphorylation in liver” value (CaMKII [2]; i.p. xestospongin C 10 pmol g−1 for 4 days, then glucagon) of the same compound?
**A.** Its value is “markedly reduced”.

**Q.** What about the “fasting-induced phosphorylation of CaMKII in liver” value (CaMKII [2]; xestospongin C treatment of the mice, 12 h fast) of the same compound?
**A.** The value was “suppressed”.

**Q.** Which results are given for “glucagon: hormone used to stimulate hepatocytes and mice”?
**A.** phospho-CaMKII (CaMKII [1]; HCs treated with agonist): induced; hepatic CaMKII phosphorylation (CaMKII [2]; bolus of i.p. glucagon): induced; glucagon dose capable of phosphorylating CaMKII in the liver (as low as) (CaMKII [2]; i.p.): 1 µg/kg
